According to patent publication US8278336B2, “Compounds” (Boehringer Ingelheim International GmbH, priority 2007, dated 2012):

These compounds were tested against T1, human CGRP receptor (Homo sapiens, UniProt O60894+Q16602) (assay: Binding studies with SK-N-MC cells (125I-CGRP displacement on SK-N-MC membranes)). Details: 50 pM 125I-iodotyrosyl-CGRP, 180 minutes at ambient temperature.
T1 construct: SK-N-MC membranes (˜20 μg protein) are incubated for 180 minutes at ambient temperature; endogenous in cells; host or cells: SK-N-MC cells (membrane preparation)
T1 sequence (Q16602 23-461): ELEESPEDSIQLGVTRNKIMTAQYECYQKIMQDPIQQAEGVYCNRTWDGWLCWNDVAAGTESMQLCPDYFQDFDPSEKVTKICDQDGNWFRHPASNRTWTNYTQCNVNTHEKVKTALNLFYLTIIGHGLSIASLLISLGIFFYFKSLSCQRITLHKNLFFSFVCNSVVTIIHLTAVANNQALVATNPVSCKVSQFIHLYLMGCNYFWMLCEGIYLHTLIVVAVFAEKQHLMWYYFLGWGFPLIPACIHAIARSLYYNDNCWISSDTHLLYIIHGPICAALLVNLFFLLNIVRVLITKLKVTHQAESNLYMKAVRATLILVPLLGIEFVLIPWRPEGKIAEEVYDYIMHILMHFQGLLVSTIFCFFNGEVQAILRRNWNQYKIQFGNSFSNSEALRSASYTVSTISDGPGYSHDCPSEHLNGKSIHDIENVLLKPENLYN
T1 sequence (O60894 27-148): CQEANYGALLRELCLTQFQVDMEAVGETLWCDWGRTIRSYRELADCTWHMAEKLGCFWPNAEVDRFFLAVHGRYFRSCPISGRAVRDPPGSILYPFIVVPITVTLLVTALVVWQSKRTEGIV
Experimental: A. Binding Studies with SK-N-MC Cells (Expressing the Human CGRP Receptor)
SK-N-MC membranes (˜20 μg protein) are incubated for 180 minutes at ambient temperature with 50 pM ^125I-iodotyrosyl-Calcitonin-Gene-Related Peptide and increasing concentrations of the test substances in a total volume of […] (assay buffer: 10 mM tris, 50 mM NaCl, 5 mM MgCl2, 1 mM EDTA, pH=7.4). The incubation is ended by rapid filtration through GF/B-glass fibre filters treated with polyethyleneimine (0.1%) using a cell harvester. The protein-bound radioactivity is measured using a gamma counter. Non-specific binding is defined as the bound radioactivity after the presence of 1 μM BIBN4096BS during incubation.
The concentration binding curves are analysed using computer-aided non-linear curve fitting.
For `Cn1c(N2CCC(n3c(=O)[nH]c4ncccc43)CC2)cc(C(=O)N2CCc3cc(F)ccc32)cc1=O` [Example 2, 4′-(5-fluoro-2,3-dihydroindole-1-carbonyl)-1′-methyl-4-(2-oxo-2,3-dihydroimidazo[4,5-b]-pyridin-1-yl)-3,4,5,6-tetrahydro-2H,1′H-[1,2′]bipyridinyl-6′-one], the Ki was 480 nM.
`COc1ccc2c(c1)CCN(C1CCN(c3cc(C(=O)N4CCc5cc(F)ccc54)cc(=O)[nH]3)CC1)C(=O)N2` [Example 3, 3-[4′-(5-fluoro-2,3-dihydroindole-1-carbonyl)-6′-oxo-3,4,5,6,1′,6′-hexahydro-2H-1,2′-bipyridinyl-4-yl]-7-methoxy-1,3,4,5-tetrahydro-1,3-benzodiazepin-2-one] was tested, and the Ki was 8.4 nM.
`CC1(C)CN(C(=O)c2cc(N3CCC(n4c(=O)[nH]c5ncccc54)CC3)[nH]c(=O)c2)c2ccc(F)cc21` [Example 4, 4′-(5-fluoro-3,3-dimethyl-2,3-dihydroindole-1-carbonyl)-4-(2-oxo-2,3-dihydroimidazo[4,5-b]-pyridin-1-yl)-3,4,5,6-tetrahydro-2H,1′H-[1,2′]bipyridinyl-6′-one] showed a Ki of 3.8 nM.
